Source: US20250186541A1, “DLL3 TARGETING PEPTIDES AND CONSTRUCTS THEREOF” (MARIANA ONCOLOGY INC., priority 2023, published 2025)
Bridge positions count the residues as written; N and C are the ends. Square brackets hold non-standard residues; d marks the D form. Peptide text beside a SMILES is read from it. * marks the point of attachment. DOTA = O=C(O)CN1CCN(CC(=O)O)CCN(CC(=O)*)CCN(CC(=O)O)CC1; Phe(4-CF3) = N[C@@H](Cc1ccc(C(F)(F)F)cc1)C(=O)O; Phe(4-COOH) = N[C@@H](Cc1ccc(C(=O)O)cc1)C(=O)O; Phe(4-F) = N[C@@H](Cc1ccc(F)cc1)C(=O)O; Nva = CCC[C@H](N)C(=O)O; Ahx = NCCCCCC(=O)O

biological target: T1, human DLL3 (Homo sapiens, UniProt Q9NYJ7); assay: Affinity determination by Surface Plasmon Resonance (SPR), Biacore, 1:1 binding model; details: biotinylated human DLL3 on streptavidin chip, 25° C.; NB = nonbinding
T1 construct: biotin (biotinylated)
T1 sequence (Q9NYJ7 27-618): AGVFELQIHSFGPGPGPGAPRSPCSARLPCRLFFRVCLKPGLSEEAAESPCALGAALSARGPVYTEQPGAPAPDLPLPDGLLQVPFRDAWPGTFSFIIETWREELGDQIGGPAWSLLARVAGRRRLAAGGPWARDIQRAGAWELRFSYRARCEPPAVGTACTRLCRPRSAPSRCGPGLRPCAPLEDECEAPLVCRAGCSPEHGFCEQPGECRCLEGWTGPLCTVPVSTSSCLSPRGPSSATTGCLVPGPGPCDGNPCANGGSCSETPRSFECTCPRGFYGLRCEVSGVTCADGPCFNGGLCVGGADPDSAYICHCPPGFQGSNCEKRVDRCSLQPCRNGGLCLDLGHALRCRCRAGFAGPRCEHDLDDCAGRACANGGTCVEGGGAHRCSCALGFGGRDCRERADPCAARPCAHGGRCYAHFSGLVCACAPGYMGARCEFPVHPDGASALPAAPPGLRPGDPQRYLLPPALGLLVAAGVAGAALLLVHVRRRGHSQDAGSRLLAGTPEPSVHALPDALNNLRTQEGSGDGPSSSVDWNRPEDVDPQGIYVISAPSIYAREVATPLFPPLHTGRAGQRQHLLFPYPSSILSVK
Procedure: Example 3. Binding Affinity of Targeting Moieties Polypeptides to DLL3 Affinity Determination by Surface Plasmon Resonance (SPR)
SPR studies were performed on the compounds disclosed herein using the following protocol. […] Biotinylated target ligand human DLL3 was immobilized on a streptavidin sensor chip. A reference surface was set up for nonspecific binding and refractive index changes. For analysis of the kinetics of interactions, varying concentrations of samples were injected at a flow rate of 100 μL/min using running buffer containing 20 mM phosphate buffer with 2.7 mM KCl, 137 mM NaCl, 0.05% Surfactant P20 and 2% DMSO. Sensorgram curves were fitted with 1:1 binding model, and affinity and kinetic parameters were obtained using Biacore Insight evaluation 4.0. software.

| Compound | Kd |
| --- | --- |
| CSCC[C@H](NC(C)=O)C(=O)N[C@@H](CO)C(=O)N[C@@H](CC(=O)O)C(=O)N[C@H]1CSSC[C@@H](C(=O)N[C@H](C)C(=O)N[C@@H](Cc2ccccc2)C(=O)N[C@@H](CC(=O)O)C(N)=O)NC(=O)[C@H](CC(N)=O)NC(=O)[C@H](Cc2c[nH]c3ccccc23)NC(=O)[C@H](CCC(N)=O)NC(=O)[C@H](CC(C)C)NC(=O)[C@H](Cc2c[nH]c3ccccc23)NC1=O [compound 16, Ac-M-S-D-C(3)-W-L-Q-W-N-C(3)-(D-Ala)-F-D-CONH2] (Ac-MSDCWLQWNC[dA]FD-NH2; disulfide 4-10) | > 100 nM |
| CSCC[C@H](NC(C)=O)C(=O)N[C@@H](CO)C(=O)N[C@@H](CC(=O)O)C(=O)N[C@H]1CSSC[C@@H](C(=O)N2CCC[C@H]2C(=O)N[C@H](C)C(=O)N[C@@H](CC(=O)O)C(N)=O)NC(=O)[C@H](CC(N)=O)NC(=O)[C@H](Cc2c[nH]c3ccccc23)NC(=O)[C@H](CCC(N)=O)NC(=O)[C@H](CC(C)C)NC(=O)[C@H](Cc2c[nH]c3ccccc23)NC1=O [compound 17, Ac-M-S-D-C(3)-W-L-Q-W-N-C(3)-P-(D-Ala)-D-CONH2] (Ac-MSDCWLQWNCP[dA]D-NH2; disulfide 4-10) | > 100 nM |
| CSCC[C@H](NC(C)=O)C(=O)N[C@@H](CO)C(=O)N[C@@H](CC(=O)O)C(=O)N[C@H]1CSSC[C@@H](C(=O)N2CCC[C@H]2C(=O)N[C@@H](Cc2ccccc2)C(=O)N[C@H](C)C(N)=O)NC(=O)[C@H](CC(N)=O)NC(=O)[C@H](Cc2c[nH]c3ccccc23)NC(=O)[C@H](CCC(N)=O)NC(=O)[C@H](CC(C)C)NC(=O)[C@H](Cc2c[nH]c3ccccc23)NC1=O [compound 18, Ac-M-S-D-C(3)-W-L-Q-W-N-C(3)-P-F-(D-Ala)-CONH2] (Ac-MSDCWLQWNCPF[dA]-NH2; disulfide 4-10) | > 100 nM |
| CSCC[C@H](NC(C)=O)C(=O)N[C@@H](C)C(=O)N[C@@H](CC(=O)O)C(=O)N[C@H]1CSSC[C@@H](C(=O)N2CCC[C@H]2C(=O)N[C@@H](Cc2ccccc2)C(=O)N[C@@H](CC(=O)O)C(N)=O)NC(=O)[C@H](CC(N)=O)NC(=O)[C@H](Cc2c[nH]c3ccccc23)NC(=O)[C@H](CCC(N)=O)NC(=O)[C@H](CC(C)C)NC(=O)[C@H](Cc2c[nH]c3ccccc23)NC1=O [compound 20, Ac-M-(L-Ala)-D-C(3)-W-L-Q-W-N-C(3)-P-F-D-CONH2] (Ac-MADCWLQWNCPFD-NH2; disulfide 4-10) | > 100 nM |
| CSCC[C@H](NC(C)=O)C(=O)N[C@@H](CO)C(=O)N[C@@H](CC(=O)O)C(=O)N[C@H]1CSSC[C@@H](C(=O)N2CCC[C@H]2C(=O)N[C@@H](Cc2ccccc2)C(=O)N[C@@H](CC(=O)O)C(N)=O)NC(=O)[C@H](CC(N)=O)NC(=O)[C@H](Cc2c[nH]c3ccccc23)NC(=O)[C@H](CCC(N)=O)NC(=O)[C@H](CC(C)C)NC(=O)[C@H](C)NC1=O [compound 22, Ac-M-S-D-C(3)-(L-Ala)-L-Q-W-N-C(3)-P-F-D-CONH2] (Ac-MSDCALQWNCPFD-NH2; disulfide 4-10) | > 100 nM |
| CSCC[C@H](NC(C)=O)C(=O)N[C@@H](CO)C(=O)N[C@@H](CC(=O)O)C(=O)N[C@H]1CSSC[C@@H](C(=O)N2CCC[C@H]2C(=O)N[C@@H](Cc2ccccc2)C(=O)N[C@@H](CC(=O)O)C(N)=O)NC(=O)[C@H](CC(N)=O)NC(=O)[C@H](Cc2c[nH]c3ccccc23)NC(=O)[C@H](CCC(N)=O)NC(=O)[C@H](C)NC(=O)[C@H](Cc2c[nH]c3ccccc23)NC1=O [compound 23, Ac-M-S-D-C(3)-W-(L-Ala)-Q-W-N-C(3)-P-F-D-CONH2] (Ac-MSDCWAQWNCPFD-NH2; disulfide 4-10) | > 100 nM |
| CSCC[C@H](NC(C)=O)C(=O)N[C@@H](CO)C(=O)N[C@@H](CC(=O)O)C(=O)N[C@H]1CSSC[C@@H](C(=O)N2CCC[C@H]2C(=O)N[C@@H](Cc2ccccc2)C(=O)N[C@@H](CC(=O)O)C(N)=O)NC(=O)[C@H](C)NC(=O)[C@H](Cc2c[nH]c3ccccc23)NC(=O)[C@H](CCC(N)=O)NC(=O)[C@H](CC(C)C)NC(=O)[C@H](Cc2c[nH]c3ccccc23)NC1=O [compound 26, Ac-M-S-D-C(3)-W-L-Q-W-(L-Ala)-C(3)-P-F-D-CONH2] (Ac-MSDCWLQWACPFD-NH2; disulfide 4-10) | > 100 nM |
| CSCC[C@H](NC(C)=O)C(=O)N[C@@H](CO)C(=O)N[C@@H](CC(=O)O)C(=O)N[C@H]1CSSC[C@@H](C(=O)N[C@@H](C)C(=O)N[C@@H](Cc2ccccc2)C(=O)N[C@@H](CC(=O)O)C(N)=O)NC(=O)[C@H](CC(N)=O)NC(=O)[C@H](Cc2c[nH]c3ccccc23)NC(=O)[C@H](CCC(N)=O)NC(=O)[C@H](CC(C)C)NC(=O)[C@H](Cc2c[nH]c3ccccc23)NC1=O [compound 27, Ac-M-S-D-C(3)-W-L-Q-W-N-C(3)-(L-Ala)-F-D-CONH2] (Ac-MSDCWLQWNCAFD-NH2; disulfide 4-10) | > 100 nM |
| CSCC[C@H](NC(C)=O)C(=O)N[C@@H](CO)C(=O)N[C@@H](CC(=O)O)C(=O)N[C@H]1CSSC[C@@H](C(=O)N2CCC[C@H]2C(=O)N[C@@H](C)C(=O)N[C@@H](CC(=O)O)C(N)=O)NC(=O)[C@H](CC(N)=O)NC(=O)[C@H](Cc2c[nH]c3ccccc23)NC(=O)[C@H](CCC(N)=O)NC(=O)[C@H](CC(C)C)NC(=O)[C@H](Cc2c[nH]c3ccccc23)NC1=O [compound 28, Ac-M-S-D-C(3)-W-L-Q-W-N-C(3)-P-(L-Ala)-D-CONH2] (Ac-MSDCWLQWNCPAD-NH2; disulfide 4-10) | > 100 nM |
| CSCC[C@H](NC(C)=O)C(=O)N[C@@H](CO)C(=O)N[C@@H](CC(=O)O)C(=O)N[C@H]1CSSC[C@@H](C(=O)N2CCC[C@H]2C(=O)N[C@@H](Cc2ccccc2)C(=O)N[C@@H](C)C(N)=O)NC(=O)[C@H](CC(N)=O)NC(=O)[C@H](Cc2c[nH]c3ccccc23)NC(=O)[C@H](CCC(N)=O)NC(=O)[C@H](CC(C)C)NC(=O)[C@H](Cc2c[nH]c3ccccc23)NC1=O [compound 29, Ac-M-S-D-C(3)-W-L-Q-W-N-C(3)-P-F-(L-Ala)-CONH2] (Ac-MSDCWLQWNCPFA-NH2; disulfide 4-10) | > 100 nM |
| CCC[C@H](NC(C)=O)C(=O)N[C@@H](CO)C(=O)N[C@@H](CC(=O)O)C(=O)N[C@H]1CSSC[C@@H](C(=O)N2CCC[C@H]2C(=O)N[C@@H](Cc2ccccc2)C(=O)N[C@@H](CC(=O)O)C(=O)N[C@H](CCCCNC(=O)CN2CCN(CC(=O)O)CCN(CC(=O)O)CCN(CC(=O)O)CC2)C(N)=O)NC(=O)[C@H](CC(N)=O)NC(=O)[C@H](Cc2c[nH]c3ccccc23)NC(=O)[C@H](CCC(N)=O)NC(=O)[C@H](CC(C)C)NC(=O)[C@H](Cc2c[nH]c3ccccc23)NC1=O [compound 32, Ac-Nva-S-D-C(3)-W-L-Q-W-N-C(3)-P-F-D-D-Lys(DOTA)-CONH2] (Ac-[Nva]SDCWLQWNCPFD[dK](DOTA)-NH2; disulfide 4-10) | 28 nM |
| CC(C)C[C@@H]1NC(=O)[C@H](Cc2c[nH]c3ccccc23)NC(=O)[C@@H](NC(=O)[C@H](CC(=O)O)NC(=O)[C@H](CO)NC(=O)CCCCCNC(=O)CN2CCN(CC(=O)O)CCN(CC(=O)O)CCN(CC(=O)O)CC2)CSSC[C@@H](C(=O)N2CCC[C@H]2C(=O)N[C@@H](Cc2ccc(F)cc2)C(=O)N[C@@H](CC(=O)O)C(N)=O)NC(=O)[C@H](CC(N)=O)NC(=O)[C@H](Cc2c[nH]c3ccccc23)NC(=O)[C@H](CCC(N)=O)NC1=O [compound 33, DOTA-Ahx-S-D-C(3)-W-L-Q-W-N-C(3)-P-(4Fluoro-F)-D-CONH2] ({DOTA-Ahx}-SDCWLQWNCP[Phe(4-F)]D-NH2; disulfide 3-9) | > 300 nM |
| CC(C)C[C@@H]1NC(=O)[C@H](Cc2c[nH]c3ccccc23)NC(=O)[C@@H](NC(=O)[C@H](CC(=O)O)NC(=O)[C@H](CO)NC(=O)CCCCCNC(=O)CN2CCN(CC(=O)O)CCN(CC(=O)O)CCN(CC(=O)O)CC2)CSSC[C@@H](C(=O)N2CCC[C@H]2C(=O)N[C@@H](Cc2ccc(C(F)(F)F)cc2)C(=O)N[C@@H](CC(=O)O)C(N)=O)NC(=O)[C@H](CC(N)=O)NC(=O)[C@H](Cc2c[nH]c3ccccc23)NC(=O)[C@H](CCC(N)=O)NC1=O [compound 34, DOTA-Ahx-S-D-C(3)-W-L-Q-W-N-C(3)-P-(4CF3-F)-D-CONH2] ({DOTA-Ahx}-SDCWLQWNCP[Phe(4-CF3)]D-NH2; disulfide 3-9) | > 300 nM |
| CC(C)C[C@@H]1NC(=O)[C@H](Cc2c[nH]c3ccccc23)NC(=O)[C@@H](NC(=O)[C@H](CC(=O)O)NC(=O)[C@H](CO)NC(=O)CCCCCNC(=O)CN2CCN(CC(=O)O)CCN(CC(=O)O)CCN(CC(=O)O)CC2)CSSC[C@@H](C(=O)N2CCC[C@H]2C(=O)N[C@@H](Cc2ccc(C(=O)O)cc2)C(=O)N[C@@H](CC(=O)O)C(N)=O)NC(=O)[C@H](CC(N)=O)NC(=O)[C@H](Cc2c[nH]c3ccccc23)NC(=O)[C@H](CCC(N)=O)NC1=O [compound 35, DOTA-Ahx-S-D-C(3)-W-L-Q-W-N-C(3)-P-(4COOH-F)-D-CONH2] ({DOTA-Ahx}-SDCWLQWNCP[Phe(4-COOH)]D-NH2; disulfide 3-9) | > 100 nM |
